Laboratory results reported in publication PMC5827777, “Synthesis and biological evaluation of RGD and isoDGR peptidomimetic-α-amanitin conjugates for tumor-targeting” (Beilstein Journal of Organic Chemistry, 2018).
Where two headings read alike, the source gives them in different places.

Assays:
[1] = tested on: MDA-MB-468 cells (breast adenocarcinoma, αVβ3−); test: cells; type: cell-based; conditions: 96 hours treatment, triplicate, read-out: IC50 MDA-MB-468 (αVβ3−), inhibition of cell viability
Method: (§1) The cell lines were treated with different concentrations of the free drug α-amanitin and conjugates 7–11 for 96 hours. […]
(§2) described recently.[S1] The SNP profiles matched known profiles or were unique. The purity of the cell lines was validated using the Multiplex cell Contamination Test by Multiplexion (Heidelberg, Germany) as described recently.[S2] No mycoplasma, SMRV or interspecies contamination was detected. U87-MG, MDA-MB 468 and A549 cells were cultivated continuously for not more than 3 months in MEM Eagle´s, DMEM or Ham´s F12 medium, respectively, supplemented with 10% heat inactivated fetus calf serum, L-glutamine and antibiotics. Cell lines were maintained at 37 °C and 5% CO2 in a high humidity atmosphere.
(§3) Cell therapy and viability assay
(§4) Cell viability assays were performed in U87-MG, A549 and MDA-MB 468 cell lines according to the following procedure: 2 × 10^3 cells/well were plated in 96-well black clear bottom plates (Perkin Elmer) and incubated overnight. 1:5 serial dilutions of compounds 7–11 were prepared in cell culture media. The compounds were added to the cell culture and incubated for additional 96 h. Starting concentration of compounds 7–11 in the wells was 1 × 10−5 M and cell viability was determined with the CellTiterGlo 2.0 assay (Promega) in accordance to manufacturer’s instructions. The cell viability was calculated in relation to the non-treated controls for each cell line. All samples were measured in triplicate. Data analysis was carried out using software GraphPad Prism (GraphPad Software Inc., La Jolla, CA, USA). […]
(§5) [S1] F. Castro, W. G. Dirks, S. Fähnrich, A. Hotz-Wagenblatt, M. Pawlita, M. Schmitt, Int. J. Cancer […]
(§6) [S2] M. Schmitt, M. Pawlita, Nucleic Acids Res. 2009, 37, e119.

[2] = molecular target: T1, Recombinant human integrin αVβ3 (Homo sapiens, UniProt P05106+P06756); test: Inhibition of biotinylated vitronectin binding to purified αVβ3 receptor (solid phase receptor binding assay); conditions: conjugates, Table 2; mean ± SD of triplicate determinations
T1 construct: purchased R&D Systems, Minneapolis, MN, USA
T1 sequence (P06756 31-992 limits assumed): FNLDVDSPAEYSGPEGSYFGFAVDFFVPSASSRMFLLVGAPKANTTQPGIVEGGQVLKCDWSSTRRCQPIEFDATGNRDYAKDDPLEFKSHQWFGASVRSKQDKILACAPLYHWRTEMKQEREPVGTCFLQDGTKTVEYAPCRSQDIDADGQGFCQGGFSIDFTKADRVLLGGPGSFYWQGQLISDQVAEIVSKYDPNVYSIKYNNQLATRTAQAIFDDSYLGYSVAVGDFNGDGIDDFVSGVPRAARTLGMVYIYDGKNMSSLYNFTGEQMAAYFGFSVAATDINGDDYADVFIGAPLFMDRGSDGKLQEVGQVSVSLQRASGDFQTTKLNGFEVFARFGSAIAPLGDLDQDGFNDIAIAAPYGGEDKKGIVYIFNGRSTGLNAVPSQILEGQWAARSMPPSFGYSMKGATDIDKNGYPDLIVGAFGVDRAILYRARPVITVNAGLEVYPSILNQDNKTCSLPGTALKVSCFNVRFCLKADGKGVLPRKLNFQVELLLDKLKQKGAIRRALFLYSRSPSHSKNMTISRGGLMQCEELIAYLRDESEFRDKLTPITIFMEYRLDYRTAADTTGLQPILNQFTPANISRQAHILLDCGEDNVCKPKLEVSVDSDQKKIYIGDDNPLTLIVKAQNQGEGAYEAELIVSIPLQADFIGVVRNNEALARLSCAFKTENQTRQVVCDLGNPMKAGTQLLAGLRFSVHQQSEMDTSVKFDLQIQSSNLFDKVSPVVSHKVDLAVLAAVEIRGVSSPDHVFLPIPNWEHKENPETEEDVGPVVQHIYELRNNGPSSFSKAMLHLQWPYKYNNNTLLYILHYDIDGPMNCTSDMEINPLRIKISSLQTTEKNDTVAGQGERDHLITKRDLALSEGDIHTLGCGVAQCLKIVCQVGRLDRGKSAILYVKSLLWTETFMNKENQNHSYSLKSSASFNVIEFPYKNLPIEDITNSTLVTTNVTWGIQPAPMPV
T1 sequence (P05106 27-718 limits assumed): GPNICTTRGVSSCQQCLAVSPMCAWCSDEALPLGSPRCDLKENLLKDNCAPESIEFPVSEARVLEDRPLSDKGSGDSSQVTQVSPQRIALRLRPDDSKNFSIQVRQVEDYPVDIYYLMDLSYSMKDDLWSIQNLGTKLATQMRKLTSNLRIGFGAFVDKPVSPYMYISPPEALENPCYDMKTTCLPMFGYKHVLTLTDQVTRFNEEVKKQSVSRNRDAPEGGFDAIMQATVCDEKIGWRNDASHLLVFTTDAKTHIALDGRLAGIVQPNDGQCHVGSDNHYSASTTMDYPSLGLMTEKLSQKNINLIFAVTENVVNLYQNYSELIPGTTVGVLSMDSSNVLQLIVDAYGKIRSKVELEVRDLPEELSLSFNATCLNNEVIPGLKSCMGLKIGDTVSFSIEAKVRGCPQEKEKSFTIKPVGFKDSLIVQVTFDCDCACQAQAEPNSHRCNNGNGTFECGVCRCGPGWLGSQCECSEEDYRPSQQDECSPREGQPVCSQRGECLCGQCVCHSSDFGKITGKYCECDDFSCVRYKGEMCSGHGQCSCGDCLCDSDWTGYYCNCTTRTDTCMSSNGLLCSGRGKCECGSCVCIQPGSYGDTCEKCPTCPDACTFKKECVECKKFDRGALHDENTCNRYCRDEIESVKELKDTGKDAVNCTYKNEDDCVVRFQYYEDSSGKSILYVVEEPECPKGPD
Method: Conjugates 7–11 were evaluated for their ability to inhibit biotinylated vitronectin binding to the purified αVβ3 receptor. Screening assays were performed by incubating the immobilized integrin receptor with solutions of the cyclo[DKP-RGD]-α-amanitin and cyclo[DKP-isoDGR]-α-amanitin conjugates 7–11 at different concentrations (10^−12 to 10^−5 M) in the presence of biotinylated vitronectin (1 µg mL^−1) and measuring bound vitronectin. […]
to assist the dissolution). The solution obtained was filtered (polypropylene, 0.45 μm, 13 mm ø, PK/100) and injected in the HPLC, affording purified products. Purity analyses were carried on a Dionex Ultimate 3000 instrument equipped with a Dionex RS Variable Wavelenght detector (column: Atlantis® Prep T3 OBDTM 5 μm 19 × 100 mm). The analyte (1 mg) was dissolved in 1 mL of H2O and was injected using the same gradient used in the purification step. The analysis of the integrals and the relative percentage of purity were performed with the software Chromeleon 6.80 SR11 Build 3161. Also, preparative HPLC LaPrep∑ equipped with autosampler AS3950 and a Phenomenex Luna C-18(2) column, 10 µm, 250 × 21.2 mm, with precolumn at 30 mL/min flow rate and analytical HPLC performed on Hitachi Chromaster (column oven Chromaster 5310, pump Chromaster 5110, autosampler Chromaster 5210, DAD Chromaster 5430) equipped with a Phenomenex Luna C-18(2) column, 10 µm, 250 × 4.6 mm, with precolumn at 1.4 mL/min flow rate were used. Freeze-drying: The product was dissolved in water and frozen with dry ice. The freeze-drying was carried out at least for 48 h at −50 °C using the instrument 5Pascal Lio5P DGT.
Solid phase receptor binding assays
Recombinant human integrin αVβ3 (R&D Systems, Minneapolis, MN, USA) was diluted to 0.5 µg/mL in coating buffer containing 20 mM Tris-HCl (pH 7.4), 150 mM NaCl, 1 mM MnCl2, 2 mM CaCl2, and 1 mM MgCl2. […] Absorbance at 415 nm was read in a SynergyTM HT Multi-Detection Microplate Reader (BioTek Instruments, Inc.). […]

[3] = tested on: U87 cells (human glioblastoma, αVβ3+); test: cells; type: cell-based; conditions: for IC50: 96 hours treatment, triplicate, read-out: IC50 U87 (αVβ3+), inhibition of cell viability
Method: as §1, §2, §3
Cell viability assays were performed in U87-MG, A549 and MDA-MB 468 cell lines according to the following procedure: 2 × 10^3 cells/well were plated in 96-well black clear bottom plates (Perkin Elmer) and incubated overnight. 1:5 serial dilutions of compounds 7–11 were prepared in cell culture media. The compounds were added to the cell culture and incubated for additional 96 h. Starting concentration of compounds 7–11 in the wells was 1 × 10−5 M and cell viability was determined with the CellTiterGlo 2.0 assay (Promega) in accordance to manufacturer’s instructions. The cell viability was calculated in relation to the non-treated controls for each cell line. All samples were measured in triplicate. Data analysis was carried out using software GraphPad Prism (GraphPad Software Inc., La Jolla, CA, USA).
Competition experiment of compounds 10 and 11
The competition experiment s were performed in U87-MG and MDA-MB 468 cell lines according to the following procedure: 2 × 10^3 cells/well were plated in 96-well black clear bottom plates (Perkin Elmer) and incubated overnight. A solution containing 1 × 10−4 M of the conjugates 10 or 11 and 5 × 10−3 M of cilengitide (50-fold excess of ligand in comparison to the conjugate) was prepared in the growth medium and 1:5 serial dilutions were prepared in cell culture media. The compounds were added to cell culture and incubated for 96 h. The starting concentration of the compounds in the wells was 0.01 mM whereas that of cilengitide was 0.5 mM. The cell viability was determined with the CellTiterGlo 2.0 assay (Promega) in accordance to manufacturer’s instructions and the viability was calculated in relation to the non-treated controls for each cell line. All samples were measured in triplicate. Data analysis was carried out using software GraphPad Prism (GraphPad Software Inc., La Jolla, CA, USA).
as §5, §6

[4] = tested on: αVβ3 positive and αVβ3 negative cell line; set-up: method as in PMID 28449309; conditions: αVβ3 positive vs αVβ3 negative cell line; cited from earlier work
[5] = molecular target: αVβ5 receptor; set-up: method as in PMID 22517378, PMID 23424096; conditions: free ligands, Table 1; mean ± SD of triplicate determinations; read-out: IC50 αVβ5, inhibition of biotinylated vitronectin binding; cited from earlier work
[6] = tested on: αVβ5 receptor; test: Inhibition of biotinylated vitronectin binding to αVβ5 receptor; conditions: ratio of IC50 values of Table 1
[7] = tested on: αVβ5; set-up: method as in PMID 28074920; conditions: read-out: IC50 αVβ5 binding; cited from earlier work
[8] = tested on: α5β1; set-up: method as in PMID 28074920; conditions: read-out: IC50 α5β1 binding; cited from earlier work
[9] = tested on: αVβ3; set-up: method as in PMID 28074920; conditions: read-out: IC50 αVβ3 binding; cited from earlier work
[10] = tested on: A549 cells (human lung carcinoma, αVβ3−); test: cells; type: cell-based
Method: as §1, §2, §3, §4

Which results are given for `CC[C@H](C)[C@@H]1NC(=O)CNC(=O)[C@@H]2Cc3c([nH]c4cc(OCCCCCCNC(=O)CCCC(=O)NCc5ccc(CN6C(=O)[C@H]7CC(=O)N[C@@H](CCCNC(=N)N)C(=O)NCC(=O)N[C@@H](CC(=O)O)C(=O)NC[C@H]6C(=O)N7)cc5)ccc34)[S+]([O-])C[C@H](NC(=O)CNC1=O)C(=O)N[C@@H](CC(N)=O)C(=O)N1C[C@H](O)C[C@H]1C(=O)N[C@@H]([C@@H](C)[C@@H](O)CO)C(=O)N2` (stereo partly drawn) [Compound 7, cyclo[DKP-RGD]-uncleavable-α-amanitin]?
IC50 [1]: 1110 ± 228 nM; IC50 [2]: 11.6 ± 2.4 nM; IC50 [3]: 2550 ± 37.6 nM

For `CC(=O)O[C@H]1C(=O)[C@@]2(C)[C@H]([C@H](OC(=O)c3ccccc3)[C@]3(O)C[C@H](OC(=O)[C@H](OC(=O)N(C)CCN(C)C(=O)OCc4ccc(NC(=O)[C@H](C)NC(=O)[C@@H](NC(=O)CCCC(=O)NCc5ccc(CN6C(=O)[C@H]7CC(=O)N[C@@H](CCCNC(=N)N)C(=O)NCC(=O)N[C@@H](CC(=O)O)C(=O)NC[C@H]6C(=O)N7)cc5)C(C)C)cc4)[C@@H](NC(=O)c4ccccc4)c4ccccc4)C(C)=C1C3(C)C)[C@]1(OC(C)=O)CO[C@@H]1C[C@@H]2O` [Conjugate 5, cyclo[DKP-RGD]-Val-Ala-PTX], which “targeting index (TI)” value [4] is on record?
The value was 2.4.

What does the source list for `N=C(N)NCCC[C@@H]1NC(=O)C[C@H]2NC(=O)[C@H](CNC(=O)[C@H](CC(=O)O)NC(=O)CNC1=O)N(Cc1ccccc1)C2=O` [Ligand 1, cyclo[DKP-RGD]]?
IC50 [5]: 149 ± 25 nM; selectivity for αVβ3 in comparison with integrin αVβ5 [6]: 33–34 times

Which results are given for cilengitide?
IC50 [7]: 8.4 nM; IC50 [8]: 14.9 nM; IC50 [9]: 0.6 nM

With `CC(=O)O[C@H]1C(=O)[C@@]2(C)[C@H]([C@H](OC(=O)c3ccccc3)[C@]3(O)C[C@H](OC(=O)[C@H](OC(=O)N(C)CCN(C)C(=O)OCc4ccc(NC(=O)[C@H](C)NC(=O)[C@@H](NC(=O)CCCC(=O)NCc5ccc(CN6C(=O)[C@H]7CC(=O)N[C@H](C(=O)O)CC(=O)NCC(=O)N[C@@H](CCCNC(=N)N)C(=O)NC[C@H]6C(=O)N7)cc5)C(C)C)cc4)[C@@H](NC(=O)c4ccccc4)c4ccccc4)C(C)=C1C3(C)C)[C@]1(OC(C)=O)CO[C@@H]1C[C@@H]2O` [Conjugate 6, cyclo[DKP-isoDGR]-Val-Ala-PTX] as the compound, how does the “targeting index (TI)” value [4] read?
The value was 9.9.

With `CC[C@H](C)[C@@H]1NC(=O)CNC(=O)[C@@H]2Cc3c([nH]c4cc(OCCCCCCNC(=O)CCCC(=O)NCc5ccc(CN6C(=O)[C@H]7CC(=O)N[C@H](C(=O)O)CC(=O)NCC(=O)N[C@@H](CCCNC(=N)N)C(=O)NC[C@H]6C(=O)N7)cc5)ccc34)[S+]([O-])C[C@H](NC(=O)CNC1=O)C(=O)N[C@@H](CC(N)=O)C(=O)N1C[C@H](O)C[C@H]1C(=O)N[C@@H]([C@@H](C)[C@@H](O)CO)C(=O)N2` (stereo partly drawn) [Compound 8, cyclo[DKP-isoDGR]-uncleavable-α-amanitin] as the compound, how does the IC50 [1] read?
The IC50 was 2200 ± 96.2 nM.

What about the IC50 [2] of the same compound?
Its IC50 is 6.8 ± 4.3 nM.

And the IC50 [3]?
Its IC50 is 3355 ± 19.1 nM.

Which “less potent than the free drug (α-amanitin)” value ([10]; A549 cell line) does the source give for `CC[C@H](C)[C@@H]1NC(=O)CNC(=O)[C@@H]2Cc3c([nH]c4cc(OCc5ccc(NC(=O)[C@H](C)NC(=O)[C@@H](NC(=O)CCc6cn(CCOCCOCCOCCOCC(=O)NCc7ccc(CN8C(=O)[C@H]9CC(=O)N[C@H](C(=O)O)CC(=O)NCC(=O)N[C@@H](CCCNC(=N)N)C(=O)NC[C@H]8C(=O)N9)cc7)nn6)C(C)C)cc5)ccc34)[S+]([O-])C[C@H](NC(=O)CNC1=O)C(=O)N[C@@H](CC(N)=O)C(=O)N1C[C@H](O)C[C@H]1C(=O)N[C@@H]([C@@H](C)[C@@H](O)CO)C(=O)N2` (stereo partly drawn) [Compound 11, cyclo[DKP-isoDGR]-PEG-4-Val-Ala-α-amanitin] here?
The value was 1.4 times.

What about the “more potent than α-amanitin” value ([3]; in U87 and MDA-MB-468 cell lines, Table 3 entry 1 vs entry 6) of the same compound?
The value was 2.1–2.8 times.

With `CC[C@H](C)[C@@H]1NC(=O)CNC(=O)[C@@H]2Cc3c([nH]c4cc(O)ccc34)[S@+]([O-])C[C@H](NC(=O)CNC1=O)C(=O)N[C@@H](CC(N)=O)C(=O)N1C[C@H](O)C[C@H]1C(=O)N[C@@H]([C@@H](C)[C@@H](O)CO)C(=O)N2` [α-amanitin] as the compound, how does the IC50 ([1]; Homo sapiens, MDA-MB-468) read?
The IC50 was 185 ± 49.6 nM.

What about the IC50 ([10]; Homo sapiens, A549, 96 hours treatment, triplicate, read-out: IC50 A549 (αVβ3−), inhibition of cell viability) of the same compound?
The IC50 was 518 ± 305 nM.

And the IC50 ([3]; Homo sapiens, U-87 MG)?
The IC50 was 347 ± 132 nM.
